Test results published in ChEMBL document CHEMBL3217615, “Novel 3,5-bis(arylidiene)-4-piperidone based monocarbonyl analogs of curcumin: anticancer activity evaluation and mode of action study” (2014).

What was measured:
Format in all cases: functional
[1] = Growth inhibition of human OVCAR4 cells assessed as cell growth at 10^-5 M after 48 hrs by sulforhodamine B assay; conditions: OVCAR-4, 48 h, read-out: Activity
[2] = Growth inhibition of human OVCAR3 cells assessed as cell growth at 10^-5 M after 48 hrs by sulforhodamine B assay; conditions: OVCAR-3, 48 h, read-out: Activity
[3] = test system: IGROV-1; assay: Growth inhibition of human IGROV1 cells assessed as cell growth at 10^-5 M after 48 hrs by sulforhodamine B assay; conditions: IGROV-1, 48 h, read-out: Activity
[4] = test system: SK-MEL-28; assay: Growth inhibition of human SK-MEL-28 cells assessed as cell growth at 10^-5 M after 48 hrs by sulforhodamine B assay; conditions: SK-MEL-28, 48 h, read-out: Activity
[5] = test system: Malme-3M; assay: Growth inhibition of human MALME-3M cells assessed as cell growth at 10^-5 M after 48 hrs by sulforhodamine B assay; conditions: read-out: Activity
[6] = Growth inhibition of human LOXIMVI cells assessed as cell growth at 10^-5 M after 48 hrs by sulforhodamine B assay; conditions: LOX IMVI, read-out: Activity
[7] = test system: SNB-19; assay: Growth inhibition of human SNB19 cells assessed as cell growth at 10^-5 M after 48 hrs by sulforhodamine B assay; conditions: SNB-19, 48 h, read-out: Activity
[8] = test system: SNB-75; assay: Growth inhibition of human SNB75 cells assessed as cell growth at 10^-5 M after 48 hrs by sulforhodamine B assay; conditions: SNB-75, 48 h, read-out: Activity
[9] = test system: SW-620; assay: Growth inhibition of human SW620 cells assessed as cell growth at 10^-5 M after 48 hrs by sulforhodamine B assay; conditions: SW-620, 48 h, read-out: Activity
[10] = test system: KM12; assay: Growth inhibition of human KM12 cells assessed as cell growth at 10^-5 M after 48 hrs by sulforhodamine B assay; conditions: KM12, 48 h, read-out: Activity
[11] = test system: HCT-116; assay: Growth inhibition of human HCT116 cells assessed as cell growth at 10^-5 M after 48 hrs by sulforhodamine B assay; conditions: HCT-116, 48 h, read-out: Activity
[12] = test system: COLO 205; assay: Growth inhibition of human COLO205 cells assessed as cell growth at 10^-5 M after 48 hrs by sulforhodamine B assay; conditions: COLO 205, 48 h, read-out: Activity
[13] = test system: NCI-H226; assay: Growth inhibition of human NCI-H226 cells assessed as cell growth at 10^-5 M after 48 hrs by sulforhodamine B assay; conditions: NCI-H226, 48 h, read-out: Activity
[14] = Growth inhibition of human MOLT4 cells assessed as cell growth at 10^-5 M after 48 hrs by sulforhodamine B assay; conditions: MOLT-4, 48 h, read-out: Activity
[15] = test system: HL-60(TB); assay: Growth inhibition of human HL-60(TB) cells assessed as cell growth at 10^-5 M after 48 hrs by sulforhodamine B assay; conditions: HL-60, 48 h, read-out: Activity
[16] = Growth inhibition of human BT549 cells assessed as cell growth at 10^-5 M after 48 hrs by sulforhodamine B assay; conditions: BT-549, 48 h, read-out: Activity
[17] = test system: DU-145; assay: Growth inhibition of human DU145 cells assessed as cell growth at 10^-5 M after 48 hrs by sulforhodamine B assay; conditions: DU-145, 48 h, read-out: Activity
[18] = test system: SK-OV-3; assay: Growth inhibition of human SKOV3 cells assessed as cell growth at 10^-5 M after 48 hrs by sulforhodamine B assay; conditions: SK-OV-3, 48 h, read-out: Activity
[19] = test system: COLO 205; assay: Induction of apoptosis in human COLO205 cells assessed as caspase 3/7 activation at 10 uM by FLICA
[20] = test system: SK-MEL-28; assay: Growth inhibition of human SK-MEL-28 cells assessed as cell growth at 10^-6 M after 48 hrs by sulforhodamine B assay; conditions: SK-MEL-28, 48 h, read-out: Activity
[21] = test system: SK-MEL-2; assay: Growth inhibition of human SK-MEL-2 cells assessed as cell growth at 10^-6 M after 48 hrs by sulforhodamine B assay; conditions: SK-MEL-2, 48 h, read-out: Activity
[22] = test system: NCI-H226; assay: Growth inhibition of human NCI-H226 cells assessed as cell growth at 10^-6 M after 48 hrs by sulforhodamine B assay; conditions: NCI-H226, 48 h, read-out: Activity
[23] = Growth inhibition of human RXF393 cells assessed as cell growth at 10^-7 M after 48 hrs by sulforhodamine B assay; conditions: RXF 393, 48 h, read-out: Activity
[24] = test system: 786-0; assay: Growth inhibition of human 786-0 cells assessed as cell growth at 10^-4 M after 48 hrs by sulforhodamine B assay; conditions: 786-0, 48 h, read-out: Activity
[25] = test system: HT-29; assay: Growth inhibition of human HT-29 cells assessed as cell growth at 10^-8 M after 48 hrs by sulforhodamine B assay; conditions: HT-29, 48 h; for growth at 0.01 µM: read-out: Activity; for TGI: read-out: pTGI (converted)
[26] = test system: RPMI-8226; assay: Growth inhibition of human RPMI8226 cells assessed as cell growth at 10^-8 M after 48 hrs by sulforhodamine B assay; conditions: RPMI-8226, 48 h; for growth at 0.01 µM: read-out: Activity; for CC50: read-out: pLC50 (the source's name) (converted); for TGI: read-out: pTGI (converted)
[27] = test system: MCF7; assay: Growth inhibition of human MCF7 cells after 48 hrs by sulforhodamine B assay; conditions: MCF7, 48 h; for CC50: read-out: LC50 (the source's name)
[28] = test system: SK-MEL-28; assay: Growth inhibition of human SK-MEL-28 cells after 48 hrs by sulforhodamine B assay; conditions: SK-MEL-28, 48 h; for CC50: read-out: LC50 (the source's name)
[29] = test system: MDA-MB-435; assay: Growth inhibition of human MDA-MB-435 cells after 48 hrs by sulforhodamine B assay; conditions: MDA-MB-435, 48 h; for CC50: read-out: LC50 (the source's name)
[30] = test system: SNB-75; assay: Growth inhibition of human SNB75 cells after 48 hrs by sulforhodamine B assay; conditions: SNB-75, 48 h; for CC50: read-out: LC50 (the source's name)
[31] = test system: SNB-19; assay: Growth inhibition of human SNB19 cells after 48 hrs by sulforhodamine B assay; conditions: SNB-19, 48 h; for CC50: read-out: LC50 (the source's name)
[32] = test system: SF-268; assay: Growth inhibition of human SF268 cells after 48 hrs by sulforhodamine B assay; conditions: SF-268, 48 h; for CC50: read-out: LC50 (the source's name)
[33] = test system: KM12; assay: Growth inhibition of human KM12 cells assessed as cell growth at 10^-7 M after 48 hrs by sulforhodamine B assay; conditions: KM12, 48 h, read-out: Activity
[34] = Growth inhibition of human OVCAR4 cells assessed as cell growth at 10^-8 M after 48 hrs by sulforhodamine B assay; conditions: OVCAR-4, 48 h; for growth at 0.01 µM: read-out: Activity; for TGI: read-out: pTGI

## Cc1ccc(S(=O)(=O)N2C/C(=C\c3c(Cl)cccc3Cl)C(=O)/C(=C/c3c(Cl)cccc3Cl)C2)cc1
[1]
  growth at 10 µM: 85.3%
[2]
  growth at 10 µM: 84%
[3]
  growth at 10 µM: 104%
[4]
  growth at 10 µM: 101%
[5]
  growth at 10 µM: 89%
[6]
  growth at 10 µM: 79.4%
[7]
  growth at 10 µM: 95.7%
[8]
  growth at 10 µM: 65.2%
[9]
  growth at 10 µM: 101%
[10]
  growth at 10 µM: 88.7%
[11]
  growth at 10 µM: 74.2%
[12]
  growth at 10 µM: 110%
[13]
  growth at 10 µM: 98.1%
[14]
  growth at 10 µM: 68.7%
[15]
  growth at 10 µM: 94.5%
[16]
  growth at 10 µM: 101%
[17]
  growth at 10 µM: 96.8%
[18]
  growth at 10 µM: 93.7%

## O=C1/C(=C/c2ccc(Cl)cc2Cl)CN(S(=O)(=O)c2ccccc2)C/C1=C\c1ccc(Cl)cc1Cl
[19]
  Activity: 35.5%
[20]
  growth at 1 µM: 93%
[21]
  growth at 1 µM: 98%
[22]
  growth at 1 µM: 52%
[23]
  growth at 0.1 µM: 84%
[1]
  growth at 10 µM: 8%
[2]
  growth at 10 µM: -67%
[3]
  growth at 10 µM: -39%
[4]
  growth at 10 µM: 27%
[5]
  growth at 10 µM: -21%
[6]
  growth at 10 µM: -58.7%
[7]
  growth at 10 µM: -39.1%
[8]
  growth at 10 µM: -6%
[9]
  growth at 10 µM: -15.2%
[10]
  growth at 10 µM: -57.2%
[11]
  growth at 10 µM: -84%
[12]
  growth at 10 µM: -38%
[13]
  growth at 10 µM: -62%
[14]
  growth at 10 µM: -2%
[15]
  growth at 10 µM: -24%
[24]
  growth at 100 µM: -93%
[16]
  growth at 10 µM: -72.8%
[17]
  growth at 10 µM: 4%
[18]
  growth at 10 µM: 44%
[25]
  GI50: 295 nM
  LC50: > 100000 nM
  growth at 0.01 µM: 102%
  TGI: 851 nM
[26]
  GI50: 224 nM
  growth at 0.01 µM: 104%
  CC50: > 100000 nM
  TGI: 603 nM
[27]
  GI50: 305 nM
  TGI: 100000 nM
  CC50: > 100000 nM
[28]
  GI50: 4440 nM
  TGI: > 100000 nM
  CC50: > 100000 nM
[29]
  GI50: 985 nM
  TGI: 3210 nM
  CC50: > 100000 nM
[30]
  GI50: 432 nM
  TGI: 7290 nM
  CC50: > 100000 nM
[31]
  GI50: 313 nM
  TGI: 2880 nM
  CC50: > 100000 nM
[32]
  GI50: 447 nM
  TGI: > 100000 nM
  CC50: > 100000 nM
[33]
  growth at 0.1 µM: 105%
[34]
  GI50: 282 nM
  LC50: > 100000 nM
  growth at 0.01 µM: 102%
  TGI: > 100000 nM

## O=C1/C(=C/c2c(Cl)cccc2Cl)CN(S(=O)(=O)c2ccccc2)C/C1=C\c1c(Cl)cccc1Cl
[1]
  growth at 10 µM: 84.6%
[2]
  growth at 10 µM: 73.9%
[3]
  growth at 10 µM: 100%
[4]
  growth at 10 µM: 88.1%
[5]
  growth at 10 µM: 90%
[6]
  growth at 10 µM: 78%
[7]
  growth at 10 µM: 92.7%
[8]
  growth at 10 µM: 66.2%
[9]
  growth at 10 µM: 89.4%
[10]
  growth at 10 µM: 74.8%
[11]
  growth at 10 µM: 61.7%
[12]
  growth at 10 µM: 92.4%
[13]
  growth at 10 µM: 110%
[14]
  growth at 10 µM: 52.8%
[15]
  growth at 10 µM: 81%
[16]
  growth at 10 µM: 89.3%
[17]
  growth at 10 µM: 85.8%
[18]
  growth at 10 µM: 91.9%

## Cc1ccc(S(=O)(=O)N2C/C(=C\c3cc(F)cc(F)c3)C(=O)/C(=C/c3cc(F)cc(F)c3)C2)cc1
[19]
  Activity: 41.5%
[20]
  growth at 1 µM: 29%
[21]
  growth at 1 µM: 89%
[22]
  growth at 1 µM: 90%
[23]
  growth at 0.1 µM: 88%
[1]
  growth at 10 µM: -31.4%
[2]
  growth at 10 µM: -84%
[3]
  growth at 10 µM: -77%
[4]
  growth at 10 µM: -87%
[5]
  growth at 10 µM: -75%
[6]
  growth at 10 µM: -98%
[7]
  growth at 10 µM: -97%
[8]
  growth at 10 µM: -41.6%
[9]
  growth at 10 µM: -79%
[10]
  growth at 10 µM: -82%
[11]
  growth at 10 µM: -94%
[12]
  growth at 10 µM: -73%
[13]
  growth at 10 µM: 47%
[14]
  growth at 10 µM: -17%
[15]
  growth at 10 µM: -14%
[24]
  growth at 100 µM: -95%
[16]
  growth at 10 µM: -89%
[17]
  growth at 10 µM: -65%
[18]
  growth at 10 µM: -26%
[25]
  GI50: 229 nM
  LC50: 3160 nM
  growth at 0.01 µM: 105%
  TGI: 631 nM
[26]
  GI50: 37.1 nM
  growth at 0.01 µM: 94%
  CC50: 93300 nM
  TGI: 331 nM
[27]
  GI50: 175 nM
  TGI: 1450 nM
  CC50: 6880 nM
[28]
  GI50: 473 nM
  TGI: 1790 nM
  CC50: 4820 nM
[29]
  GI50: 241 nM
  TGI: 685 nM
  CC50: 3630 nM
[30]
  GI50: 1990 nM
  TGI: 5900 nM
  CC50: 26200 nM
[31]
  GI50: 220 nM
  TGI: 752 nM
  CC50: 2820 nM
[32]
  GI50: 431 nM
  TGI: 2150 nM
  CC50: 14400 nM
[33]
  growth at 0.1 µM: 103%
[34]
  GI50: 437 nM
  LC50: 36300 nM
  growth at 0.01 µM: 100%
  TGI: 5250 nM
